Experimental data as given in ChEMBL document CHEMBL1132084, “Thrombin inhibitors based on a propargylglycine template” (Bioorg Med Chem Lett, 1999).

What was measured:
[1] = biological target: Prothrombin (Homo sapiens, UniProt P00734); assay: Inhibition of human thrombin
[2] = biological target: T1, Serine protease 1 (Bos taurus, UniProt P00760); assay: Inhibitory activity against bovine trypsin
T1 sequence (P00760 whole entry): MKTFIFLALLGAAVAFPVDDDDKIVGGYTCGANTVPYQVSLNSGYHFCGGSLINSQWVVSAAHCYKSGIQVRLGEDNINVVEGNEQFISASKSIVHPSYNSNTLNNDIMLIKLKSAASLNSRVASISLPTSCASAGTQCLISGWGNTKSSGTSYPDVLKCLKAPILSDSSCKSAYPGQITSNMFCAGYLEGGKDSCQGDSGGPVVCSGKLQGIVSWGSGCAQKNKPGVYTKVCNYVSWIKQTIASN

[3] = biological target: Tissue-type plasminogen activator (Homo sapiens, UniProt P00750); assay: Inhibitory activity against tissue type plasminogen activator (t-PA)
Tissue-type plasminogen activator, sequence (P00750 whole entry): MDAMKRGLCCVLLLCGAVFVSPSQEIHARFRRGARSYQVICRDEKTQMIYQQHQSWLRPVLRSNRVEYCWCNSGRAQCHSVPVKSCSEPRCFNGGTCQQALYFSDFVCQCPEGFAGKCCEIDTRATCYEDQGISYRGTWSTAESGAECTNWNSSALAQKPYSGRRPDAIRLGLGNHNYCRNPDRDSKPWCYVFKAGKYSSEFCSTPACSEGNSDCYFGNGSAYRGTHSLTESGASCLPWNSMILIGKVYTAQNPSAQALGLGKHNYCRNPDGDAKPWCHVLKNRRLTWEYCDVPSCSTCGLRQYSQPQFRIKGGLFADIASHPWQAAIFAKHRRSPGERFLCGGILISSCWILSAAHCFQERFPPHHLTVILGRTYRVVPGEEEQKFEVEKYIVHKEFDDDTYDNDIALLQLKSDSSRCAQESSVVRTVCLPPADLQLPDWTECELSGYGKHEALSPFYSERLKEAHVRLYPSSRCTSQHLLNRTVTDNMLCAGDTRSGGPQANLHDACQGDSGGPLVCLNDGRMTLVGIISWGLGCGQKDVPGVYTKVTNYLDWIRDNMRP

[4] = biological target: Coagulation factor X (Homo sapiens, UniProt P00742); assay: Inhibitory activity against factor Xa
Coagulation factor X, sequence (P00742 41-179 limits assumed): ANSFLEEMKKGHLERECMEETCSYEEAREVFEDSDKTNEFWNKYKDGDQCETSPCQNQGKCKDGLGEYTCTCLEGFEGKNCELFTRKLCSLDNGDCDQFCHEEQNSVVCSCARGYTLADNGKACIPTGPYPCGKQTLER
Coagulation factor X, sequence (P00742 235-488 limits assumed): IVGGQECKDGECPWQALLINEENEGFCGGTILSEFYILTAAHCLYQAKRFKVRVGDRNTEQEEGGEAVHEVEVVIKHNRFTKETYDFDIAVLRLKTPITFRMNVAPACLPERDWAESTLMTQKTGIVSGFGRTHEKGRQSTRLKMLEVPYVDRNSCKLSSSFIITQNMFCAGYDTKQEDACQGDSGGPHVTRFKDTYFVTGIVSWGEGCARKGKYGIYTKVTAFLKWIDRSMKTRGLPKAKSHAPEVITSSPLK

[5] = biological target: Plasminogen (Homo sapiens, UniProt P00747); assay: Inhibitory activity against plasmin
Plasminogen, sequence (P00747 97-580 limits assumed): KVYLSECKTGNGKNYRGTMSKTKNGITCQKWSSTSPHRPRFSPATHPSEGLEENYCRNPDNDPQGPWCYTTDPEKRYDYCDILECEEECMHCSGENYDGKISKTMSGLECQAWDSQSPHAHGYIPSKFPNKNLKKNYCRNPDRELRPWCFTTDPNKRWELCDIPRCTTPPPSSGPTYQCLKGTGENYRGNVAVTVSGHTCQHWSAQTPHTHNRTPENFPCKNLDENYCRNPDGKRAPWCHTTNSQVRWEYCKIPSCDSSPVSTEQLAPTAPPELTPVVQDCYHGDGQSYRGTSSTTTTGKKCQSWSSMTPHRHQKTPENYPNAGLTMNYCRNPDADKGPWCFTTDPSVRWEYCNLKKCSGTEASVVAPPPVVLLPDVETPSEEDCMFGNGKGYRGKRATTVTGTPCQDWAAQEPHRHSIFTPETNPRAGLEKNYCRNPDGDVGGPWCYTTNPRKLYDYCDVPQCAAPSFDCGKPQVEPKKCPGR
Plasminogen, sequence (P00747 581-810 limits assumed): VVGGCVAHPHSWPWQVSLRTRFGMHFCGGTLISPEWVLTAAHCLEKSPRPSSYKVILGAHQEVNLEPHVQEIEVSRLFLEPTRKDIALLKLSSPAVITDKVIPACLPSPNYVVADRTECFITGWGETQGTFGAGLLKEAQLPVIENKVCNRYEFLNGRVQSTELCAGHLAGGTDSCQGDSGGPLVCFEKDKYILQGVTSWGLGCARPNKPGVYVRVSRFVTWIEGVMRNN

[6] = Cmax at a dose of […] mg/kg in rat; type: ADME, organism-based; details: in vivo, 30 mg/kg
[7] = Area under was determined at a dose of 30 mg/kg; type: ADME, organism-based; set-up: dose 30 mg/kg; details: in vivo
[8] = Tmax at a dose of 30 mg/kg in rat; type: ADME, organism-based; set-up: dose 30 mg/kg; details: in vivo

CNc1ccc(C#CC[C@H](NS(=O)(=O)c2ccc3cc(OC)ccc3c2)C(=O)N(C)C2CCCC2)cc1
Ki [1]: 27 nM | Ki [2]: > 30 µM | Ki [3]: > 200 µM | Ki [4]: 14 µM | Ki [5]: > 200 µM

CNc1ccc(C#CC[C@H](NS(=O)(=O)c2ccc3ccccc3c2)C(=O)N(C)C2CCCC2)cc1
Ki [1]: 19 nM | Ki [2]: 37 µM | Ki [3]: > 200 µM | Ki [4]: 8.7 µM | Ki [5]: > 200 µM

CN(C(=O)[C@H](CC#Cc1ccncc1)NS(=O)(=O)c1ccc2ccccc2c1)C1CCCC1
Ki [1]: > 20000 nM

CN(C(=O)[C@H](CC#Cc1cccnc1)NS(=O)(=O)c1ccc2ccccc2c1)C1CCCC1
Ki [1]: 2500 nM

CN(C(=O)[C@H](CC#Cc1cccc(N)c1)NS(=O)(=O)c1ccc2ccccc2c1)C1CCCC1
Ki [1]: 2200 nM

CN(C(=O)[C@H](CC#Cc1cnc[nH]1)NS(=O)(=O)c1ccc2ccccc2c1)C1CCCC1
Ki [1]: 3000 nM

CN(C(=O)[C@H](CC#Cc1cnc(N)nc1)NS(=O)(=O)c1ccc2ccccc2c1)C1CCCC1
Ki [1]: > 20000 nM

CNc1ncc(C#CC[C@H](NS(=O)(=O)c2ccc3ccccc3c2)C(=O)N(C)C2CCCC2)cn1
Ki [1]: 3500 nM

CNc1ccc(C#CC[C@H](NS(=O)(=O)c2ccc3ccccc3c2)C(=O)N(C)C2CCCC2)cc1N
Ki [1]: 40 nM | Ki [2]: 32 µM

CNc1ccc(C#CC[C@H](NS(=O)(=O)c2ccc3ccccc3c2)C(=O)N(C)C2CCCC2)cn1
Ki [1]: 300 nM

CN(C(=O)[C@H](CC#Cc1cnc(N)s1)NS(=O)(=O)c1ccc2ccccc2c1)C1CCCC1
Ki [1]: 4500 nM

CN(C(=O)[C@H](CC#Cc1ccc(NN)cc1)NS(=O)(=O)c1ccc2ccccc2c1)C1CCCC1
Ki [1]: 1500 nM

CCNc1ccc(C#CC[C@H](NS(=O)(=O)c2ccc3ccccc3c2)C(=O)N(C)C2CCCC2)cc1
Ki [1]: 49000 nM

CN(C(=O)[C@H](CC#Cc1ccc(N)c(N)c1)NS(=O)(=O)c1ccc2ccccc2c1)C1CCCC1
Ki [1]: 220 nM

CN(C(=O)[C@H](CC#Cc1ccc(CN)cc1)NS(=O)(=O)c1ccc2ccccc2c1)C1CCCC1
Ki [1]: 3400 nM

CN(C(=O)[C@H](CC#Cc1ccc(N)cc1)NS(=O)(=O)c1ccc2ccccc2c1)C1CCCC1
Ki [1]: 290 nM

CNc1ccc(C#CC[C@H](NS(=O)(=O)c2ccc3c(c2)CCCC3)C(=O)N(C)C2CCCC2)cc1
Cmax [6]: 1800 nM | Ki [1]: 5 nM | AUC [7]: 4.6 µM·h | Tmax [8]: 45 min | Ki [2]: > 30 µM | Ki [3]: 200 µM | Ki [4]: 1.9 µM | Ki [5]: > 200 µM

CN(C(=O)[C@H](CC#Cc1ccc(N)nc1)NS(=O)(=O)c1ccc2ccccc2c1)C1CCCC1
Ki [1]: 1500 nM

CCCc1ccc(S(=O)(=O)N[C@@H](CC#Cc2ccc(NC)cc2)C(=O)N(C)C2CCCC2)cc1
Ki [1]: 8 nM | Ki [2]: > 30 µM | Ki [3]: 190 µM | Ki [4]: 6.6 µM | Ki [5]: > 200 µM
